Assay results as given in US20050008684A1, “Method of treatment for acne, rosacea and ulcers with taurolidine and/or taurultam in a pharmaceutical composition” (priority 2003, published 2005).

Tests used:
[1] = tested on: impetiginous atopical eczema on the hands and feet; experiment: case treatment of atopic eczema, topical; assay type: in vivo, human; conditions: same patient, before taurolidine treatment
Description: The patient was released with a prescription to apply Triclosan in a Dermatop-base cream upon need. The pustules were treated with methylrosaniline chloride solution. […] Further treatments included application of Dermatop-cream, Polyvidon-Iodine solution, crystal violet solution, and Nystatin-suspension. […] Treatment was then continued for another week at reduced frequency application such as once daily.

[2] = tested on: acne, inflamed lesions in the skin; experiment: topical treatment of acne; assay type: in vivo, human
skin sensitization = experiment: Magnusson & Kligman-Test; assay type: in vivo
Staphylococcus aureus = conditions: cited from earlier work

COCC1=C(C(=O)O)N2C(=O)[C@@H](NC(=O)/C(=N\OC)c3csc(N)n3)[C@H]2SC1 [Cefpodoxim]
condition under earlier therapy of atopical eczema [1]: improved somewhat

C[C@]12C=CC(=O)C=C1CC[C@@H]1[C@@H]2[C@@H](O)C[C@@]2(C)[C@H]1CC[C@]2(O)C(=O)CO [Prednisolon]
condition under earlier therapy of atopical eczema [1]: the atopical eczema was not completely gone

O=S1(=O)CCN(CN2CCS(=O)(=O)NC2)CN1 [taurolidine, 4,4′-methylenebis-(1,2,4-thiadiazine-1,1-dioxide)]
local irritations and/or allergies ([2]; 2% taurolidine gel or emulsion on skin of affected patient): no local irritations and/or allergies could be observed
side effects such as flaking, stinging and itching ([2]; 2% taurolidine gel or emulsion, topical): No side effects
reduction of inflamed lesions in the skin ([2]; hydroxyethylcellulose gel (or W/O or O/W emulsion) with 2% taurolidine, several days after application): 50%
sensitization classification (skin sensitization): non-sensitizing agent
minimal threshold of inhibitory concentration (Staphylococcus aureus): 0.3 to 0.6 mg/mL
